Earlier results on one compound are cited in paper PMC6095608 (PLoS ONE, 2018).

The series concerns rats. To be noted: co-administered trimethoprim; cited from earlier work.

For `COc1cc(Cc2cnc(N)nc2N)cc(OC)c1OC` [trimethoprim], the “Effect on lamivudine accumulation in the renal cortex” value is listed as “did not impair”.
